Assays:
[1] = biological target: T1, SRC kinase (Homo sapiens, UniProt P12931); test: Assay for inhibition of SRC kinase activity; assay type: biochemical; details: fluorescence polarization, read-out: percentage inhibition at 20 μM
T1 construct: purchased Upstate Biotechnology 14-117
In short: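 Enzyme (12 U/ml final) preincubated 5 min with inhibitor, then PolyGluTyr 4/1 (150 ng/ml) and ATP (5 μM) added in HEPES/NaOH pH 7.6 with MgCl2, MnCl2 and Na2VO4. After 20 min at ambient temperature, phosphopeptide detected by fluorescence polarization with labelled anti-phosphopeptide antibody; percent inhibition reported at 20 μM.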

[2] = biological target: Cyclin Dependent kinase 1 (CDK1) (Homo sapiens, UniProt P06493); test: Assay for inhibition of CDK1 activity; assay type: biochemical; details: [33P]ATP, read-out: percentage inhibition at 20 μM
Method: The inhibition of the kinase activity of Cyclin Dependent kinase 1 (CDK1) is determined by measuring the phosphorylation of its substrate peptide.
The test is carried out in a final volume of 50 μl.
(§1) The incubation buffer is as follows:
• 50 mM Tris/HCl pH 7.5 • 10 mM MgCl2 • […] Na2VO4 • 2 mM DTT • 40 mM Beta-glycerophosphate • 0.1 mg/ml BSA 5 μl of the 10-times concentrated inhibitor are added to 25 μl of incubation buffer containing 0.04 U/μl final concentration of the enzyme; 10 μl of incubation buffer containing 12.5 μM final concentration of peptide substrate are then added and, finally, 10 μl of incubation buffer containing 50 μM ATP and radiolabeled ATP, [^33P]ATP (0.5 μCi), are added. The reaction is stopped after incubation for 40 minutes at ambient temperature. • Results obtained expressed as percentage inhibition at 20 μM • Example 8 93% • Example 30 99% 5) Assay for Inhibition of Abl Activity

[3] = tested on: Casein Kinase II; test: Assay for inhibition of casein kinase II activity; assay type: biochemical; details: [33P]ATP
Method: The inhibition of the kinase activity is determined by measuring the phosphorylation of its substrate peptide.
The assay is carried out in a final volume of 50 μl.
as §1
• 30 mM MES pH 6.9 • 15 mM MgCl2 • 195 mM KCl • 7.25 mM DTT 5 μl of the 10-times concentrated inhibitor are added to 25 μl of incubation buffer containing 1 U/μl final concentration of the enzyme (Tebu, SE-124); 10 μl of incubation buffer containing 60 μM final concentration of peptide substrate are then added, and, finally, 10 μl of incubation buffer containing 25 μM ATP and radiolabeled ATP, [^33P]ATP (0.25 μCi), are added. The reaction is stopped after incubation for 30 minutes at ambient temperature. • Results obtained expressed as percentage inhibition at 20 μM • Example 8 93% • Example 30 97% 8) Assay for Inhibition for CAN Kinase II Activity

[4] = biological target: FAK (Homo sapiens, UniProt Q05397); test: Assay for inhibition of FAK activity (autophosphorylation); assay type: biochemical; details: fluorescence polarization, ATP 1 μM; read-out: IC50s expressed as micromolar
Method: The inhibition of the kinase activity is determined by fluorescence polarization, the autophosphorylation of FAK is detected by adding an anti-phosphoprotein antibody coupled to a fluorescent label.
The assay is carried out in a final volume of 30 μl; all the reagents are prepared in a buffer: • 50 mM HEPES pH 7.5 • 0.03% triton X100 • 10 mM MgCl2 • 5% Glycerol • 1 mM DTT 10 μl of the 10-times concentrated inhibitor are added to 5 μl of enzyme (100 ng final concentration), and 5 μl of incubation buffer and 10 μl of ATP (1 μM final concentration) are added.

[5] = tested on: Candida albicans; test: Minimum inhibitory concentration in liquid medium, micro method (NCCLS M27-A); assay type: cell-based; details: at least 80% inhibition of growth, read after 24-48 h at 37° C., RPMI 1640, read-out: MIC Candida albicans
Method: (§2) The assay is carried out in a final volume of 40 μl; all the reagents are prepared in a buffer: • 50 mM HEPES pH 7.5 • 0.03% triton X100 • 10 mM MgCl2 • 5% Glycerol • 1 mM DTT 10 μl of the 10-times concentrated inhibitor are added to 5 μl of enzyme (75 ng final concentration), and 5 μl of peptide (1 μM final concentration), then 2.5 μl of incubation buffer containing 40 μM ATP and 2.5 μl of radiolabeled ATP, [^33P]ATP (500 nCi), are added. After incubation for 15 minutes at ambient temperature, 10 μl of incubation buffer containing 192 nM of substrate. […] Reference method for broth dilution antifungal susceptibility testing of yeasts. Approved Standard M27-A. NCCLS, Villanova, Pa.); the minimum concentration with which a visible decrease is observed in the cloudiness of the cell growth (at least 80% compared to a control without product) is the Minimum Inhibitory Concentration (MIC) of the antifungal agent with respect to the strain tested.
(§3) RPMI 1640 medium (liquid) without L-glutamine is supplemented with L-glutamine (0.3 g/l or 10.5 ml of a solution at 200 mM) and buffered with 34.54 g/l (0.165 M) of morpholinepropanesulfonic acid (MOPS). The medium is sterilized by filtration. 100 μl of RPMI medium are distributed into each well of a 96-well plate. The appropriate volume. of the antifungal solution is distributed in the first column of the microplate and supplemented with 200 μl of medium. Doubling dilutions are made so as to establish a range of 11 concentrations in each line of the microplate. The 12th well of each row will serve as a growth control. The cell suspension is prepared from a culture (liquid or agar) or from a frozen vial, and is diluted in RPMI medium so as to obtain a cell suspension at 5×10^3−2×10^4 cells/ml. 100 μl of the cell suspension are distributed in the microplate. For all species of Candida, the MIC is read after 24-48 h, and for Cryptococcus and Aspergillus after 48-72 h, of incubation at 37° C. in a normal atmosphere. The MIC is read by visual reading, determining the well which contains the lowest dose of antifungal agent which causes at least 80% inhibition of the growth of the fungus.

[6] = tested on: Candida glabrata; test: as above; assay type: cell-based; details: Nakaseomyces glabratus; at least 80% inhibition of growth, read after 24-48 h at 37° C., RPMI 1640; read-out: MIC Candida glabrata
Method: as §2, §3

Chain of FAK (Q05397 whole entry, species assumed): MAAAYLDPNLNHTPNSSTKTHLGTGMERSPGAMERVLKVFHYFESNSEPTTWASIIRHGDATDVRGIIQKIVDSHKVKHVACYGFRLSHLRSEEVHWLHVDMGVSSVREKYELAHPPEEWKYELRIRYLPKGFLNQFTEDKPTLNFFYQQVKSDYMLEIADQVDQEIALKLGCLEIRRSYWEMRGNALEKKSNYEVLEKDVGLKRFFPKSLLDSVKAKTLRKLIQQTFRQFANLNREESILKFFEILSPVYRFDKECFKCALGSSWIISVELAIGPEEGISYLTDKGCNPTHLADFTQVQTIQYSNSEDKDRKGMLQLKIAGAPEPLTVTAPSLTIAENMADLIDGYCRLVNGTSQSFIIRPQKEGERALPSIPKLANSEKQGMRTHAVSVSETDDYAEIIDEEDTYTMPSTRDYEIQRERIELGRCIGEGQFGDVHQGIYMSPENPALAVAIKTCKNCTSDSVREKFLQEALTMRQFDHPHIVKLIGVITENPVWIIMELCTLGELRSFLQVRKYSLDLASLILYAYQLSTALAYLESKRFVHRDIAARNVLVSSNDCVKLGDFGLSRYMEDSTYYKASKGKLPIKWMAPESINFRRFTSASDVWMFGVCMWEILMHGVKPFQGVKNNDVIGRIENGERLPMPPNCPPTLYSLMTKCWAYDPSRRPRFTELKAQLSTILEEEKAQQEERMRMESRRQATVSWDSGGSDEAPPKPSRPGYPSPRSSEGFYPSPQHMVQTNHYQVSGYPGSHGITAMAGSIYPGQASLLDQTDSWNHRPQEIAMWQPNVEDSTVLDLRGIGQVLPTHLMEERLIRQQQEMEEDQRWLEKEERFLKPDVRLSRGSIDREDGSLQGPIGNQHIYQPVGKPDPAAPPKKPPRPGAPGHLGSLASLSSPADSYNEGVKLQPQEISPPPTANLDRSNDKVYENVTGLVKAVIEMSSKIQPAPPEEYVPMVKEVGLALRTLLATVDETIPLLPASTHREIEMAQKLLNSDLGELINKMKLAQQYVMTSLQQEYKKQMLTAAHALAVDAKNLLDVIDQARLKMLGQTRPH
Chain of Cyclin Dependent kinase 1 (CDK1) (P06493 whole entry, species assumed): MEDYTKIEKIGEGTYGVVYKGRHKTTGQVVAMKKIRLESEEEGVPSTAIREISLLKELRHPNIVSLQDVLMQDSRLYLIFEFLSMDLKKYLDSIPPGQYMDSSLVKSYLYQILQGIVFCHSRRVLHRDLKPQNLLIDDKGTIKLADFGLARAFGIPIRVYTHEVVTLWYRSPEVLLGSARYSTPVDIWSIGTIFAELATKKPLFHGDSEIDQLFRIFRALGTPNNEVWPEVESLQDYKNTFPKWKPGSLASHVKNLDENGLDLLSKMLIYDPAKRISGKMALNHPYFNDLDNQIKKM
Chain of Cyclin Dependent kinase 1 (CDK1) (P14635 whole entry partner, species assumed): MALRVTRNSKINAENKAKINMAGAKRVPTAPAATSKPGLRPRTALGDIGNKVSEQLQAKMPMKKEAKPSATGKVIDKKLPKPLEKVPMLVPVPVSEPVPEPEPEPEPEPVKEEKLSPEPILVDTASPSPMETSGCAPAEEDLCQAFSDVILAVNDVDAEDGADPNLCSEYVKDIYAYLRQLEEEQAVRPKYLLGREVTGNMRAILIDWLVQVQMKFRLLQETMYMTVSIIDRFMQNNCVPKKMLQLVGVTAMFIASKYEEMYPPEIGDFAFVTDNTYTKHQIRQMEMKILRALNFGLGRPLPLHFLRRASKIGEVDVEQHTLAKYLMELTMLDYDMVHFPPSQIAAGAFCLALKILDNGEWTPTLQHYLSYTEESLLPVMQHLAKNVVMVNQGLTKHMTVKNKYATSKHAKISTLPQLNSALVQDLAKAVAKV
T1 sequence (P12931 whole entry): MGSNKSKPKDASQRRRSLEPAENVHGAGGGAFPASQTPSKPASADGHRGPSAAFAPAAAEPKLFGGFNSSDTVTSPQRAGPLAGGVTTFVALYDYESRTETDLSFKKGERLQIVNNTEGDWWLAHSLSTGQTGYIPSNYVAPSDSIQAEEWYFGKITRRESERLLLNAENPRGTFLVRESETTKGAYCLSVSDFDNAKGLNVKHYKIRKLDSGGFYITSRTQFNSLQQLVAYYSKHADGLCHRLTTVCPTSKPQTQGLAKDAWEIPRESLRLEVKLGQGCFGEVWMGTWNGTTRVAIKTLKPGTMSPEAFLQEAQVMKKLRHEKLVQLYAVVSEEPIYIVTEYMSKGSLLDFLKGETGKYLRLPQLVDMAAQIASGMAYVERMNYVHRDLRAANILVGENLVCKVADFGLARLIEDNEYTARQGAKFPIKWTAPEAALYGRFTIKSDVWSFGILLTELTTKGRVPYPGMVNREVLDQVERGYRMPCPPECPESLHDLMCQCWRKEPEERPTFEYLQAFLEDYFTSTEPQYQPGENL

Row | Structure (SMILES) | inhibition at 20 µM [1] [%] | inhibition at 20 µM [2] [%] | percentage inhibition at 20 μM [3] [%] | IC50 [4] [µM] | MIC [5] [mg/L] | MIC [6] [mg/L]
1 | Cl.N[C@H]1CC[C@H](Nc2nc(-n3cnc4cc(Cl)c(Cl)cc43)c3nc[nH]c3n2)CC1 [Example 8, Trans-N-[6-(5,6-dichloro-1H-benzimidazol-1-yl)-9H-purin-2-yl]-1,4-cyclohexanediamine hydrochloride] | 98 | 93 | 93 | 2 | 16 | 16
2 | Cl.Cl.N[C@H]1CC[C@H](Nc2nc(N3CCc4cc([N+](=O)[O-])ccc43)c3nc[nH]c3n2)CC1 [Example 30, Trans-N-[6-(2,3-dihydro-5-nitro-1H-indol-1-yl)-9H-purin-2-yl]-1,4-cyclohexanediamine dihydrochloride] | 99 | 99 | 97 | 1 | 32 | 64

From patent US7476670B2, “Purine derivatives, method for preparing, pharmaceutical compositions and novel use” (Aventis Pharma S.A., priority 2003, dated 2009)
